The source of these data is paper PMC7926793, “Synthesis and Biological Evaluation of 1-(Diarylmethyl)-1H-1,2,4-triazoles and 1-(Diarylmethyl)-1H-imidazoles as a Novel Class of Anti-Mitotic Agent for Activity in Breast Cancer” (Pharmaceuticals, 2021).

One experiment relates to MDA-MB-231 cells. Kind of experiment: Annexin V/PI apoptotic assay. As to conditions: 48 h. It is filed as cell-based, human. The protocol: (§1) Apoptotic cell death was detected by flow cytometry using Annexin V and propidium iodide (PI). MCF-7 and MDA-MB-231 cells were seeded in 6-well plates at a density of 1 × 10^5 cells/mL (3 mL) and treated with either vehicle (0.1% (v/v) EtOH), Phenstatin (7a), or 21l at different concentrations for the selected time. Then, cells were harvested and prepared for flow cytometric analysis. […] Then, cells were washed once in binding buffer and then re-suspended in PI-containing binding buffer (1:1000). […] Four populations are produced during the assay: Annexin V and PI negative (Q4, healthy cells), Annexin V positive and PI negative (Q3, early apoptosis), Annexin V and PI positive (Q2, late apoptosis), and Annexin V negative and PI positive (Q1, necrosis).

For a further experiment, the system named is MCF-7 cells. The experiment can be described thus: Annexin V/PI apoptotic assay. The note with it: 48 h. It is filed as cell-based, human. The protocol: as §1

With `COc1ccc(C(c2cc(OC)c(OC)c(OC)c2)n2ccnc2)cc1O` (stereo not drawn) [21l, 5-((1H-Imidazol-1-yl)(3,4,5-Trimethoxyphenyl)Methyl)-2-Methoxyphenol], the viability at 0.1 µM is 95.3% in the experiment on MDA-MB-231 cells (Homo sapiens, MDA-MB-231, 0.1 μM, Figure 9B, read-out: Viable) and 85.4% in the experiment with MCF-7 cells (Homo sapiens, MCF7, MCF-7, 0.1 μM, Figure 9A, read-out: Viable). Moreover, the viability at 0.5 µM was 93.1% in the experiment on MDA-MB-231 cells (Homo sapiens, MDA-MB-231, 0.5 μM, Figure 9B, read-out: Viable) and 81.9% in the experiment with MCF-7 cells (Homo sapiens, MCF7, MCF-7, 0.5 μM, Figure 9A, read-out: Viable). The viability at 1 µM in the experiment with MDA-MB-231 cells (Homo sapiens, MDA-MB-231, 1 μM, Figure 9B) came out at 91.5%; in the experiment on MCF-7 cells (Homo sapiens, MCF7, MCF-7, 1 μM, Figure 9A) it was 79.4%. Also, the total apoptotic cells with MDA-MB-231 cells (MDA-MB-231, 0.1 μM) was determined as 3.6%; in the experiment with MDA-MB-231 cells (MDA-MB-231, 0.5 μM), 5.9%; in the experiment on MDA-MB-231 cells (MDA-MB-231, 1.0 μM), 6.9%. The “Annexin V-stained positive cells (total apoptotic cells)” value with MCF-7 cells (MCF-7, 0.1 μM) came out at 14.1%; with MCF-7 cells (MCF-7, 0.5 μM), 17.5%; with MCF-7 cells (MCF-7, 1 μM), 19.3%.
